Converted amounts (≈) assume the structure as drawn. The source made the active and inactive calls. No cut-off for these calls is given here.
Columns and labels:
P388 = assay: Cytotoxicity against mouse P388 cells; assay type: functional, cell-based
[1] = Cytotoxicity against african green monkey BSC1 cells at 10 ug; assay type: cell-based; details: chlorocebus aethiops, bsc-1
Poliovirus 1 = assay: Antiviral activity against Poliovirus type 1 in african green monkey BSC1 cells assessed as inhibition of virus-induced cytopathic effect; assay type: functional, organism-based; details: BSC-1
Human alphaherpesvirus 1 = assay: Antiviral activity against HSV1 in african green monkey BSC1 cells assessed as inhibition of virus-induced cytopathic effect; assay type: functional, organism-based; details: BSC-1
Bacillus subtilis = assay: Antimicrobial activity against Bacillus subtilis at 60 ug/disk; assay type: functional, organism-based
Candida albicans = assay: Antimicrobial activity against Candida albicans at 60 ug/disk; assay type: functional, organism-based
[2] = tested on: Trichophyton mentagrophytes; assay: Antimicrobial activity against Trichophyton mentagrophytes at 60 ug/disk; assay type: functional, organism-based
Escherichia coli = assay: Antimicrobial activity against Escherichia coli at 60 ug/disk; assay type: functional, organism-based
Pseudomonas aeruginosa = assay: Antimicrobial activity against Pseudomonas aeruginosa at 60 ug/disk; assay type: functional, organism-based

Row | Compound | IC50 (P388) [µg/mL] | Activity [1] | Activity (Poliovirus 1) | Activity (Human alphaherpesvirus 1) | Activity (Bacillus subtilis) | Activity (Candida albicans) | Activity [2] | Activity (Escherichia coli) | Activity (Pseudomonas aeruginosa)
1 | COc1cc(CC=C(C)C)c(OC)c2ccccc12 | > 25 | – | – | – | – | – | – | – | –
2 | CC(C)=CCC12OC1C(=O)c1ccccc1C2=O (configuration not stated) | 0.8 (≈ 3.3 µM) | Active | inactive | inactive | Active | Active | Active | inactive | inactive
3 | CC(C)=CCC1(CC=C(C)C)CC(=O)c2ccccc2C1=O | > 12.5 | – | – | – | – | – | – | – | –
4 | COC1(OC)c2ccccc2C(=O)C2(CC=C(C)C)OC21 (racemic) | > 12.5 | – | – | – | – | – | – | – | –
5 | CC(C)=CCC1=CC(=O)c2ccccc2C1=O [DEOXYLAPACHOL] | 0.6 (≈ 2.65 µM) | Active | inactive | inactive | Active | Active | Active | inactive | inactive
6 | CC(C)=CCC1=C(O)C(=O)c2ccccc2C1=O [LAPACHOL] | 0.2 (≈ 0.826 µM) | – | – | – | – | – | – | – | –
